Assays:
collagenase = test: Inhibition of collagenase expression in human fibroblasts; assay type: cell-based; conditions: 10^−4 M test material, 24 hours, untreated group = 100
Experimental: The collagenase expression inhibitory activities of the Chrysanthemum indicum var. albescens extract prepared in Preparation Example 1 and the Chrysanthemum indicum extract prepared in Comparative Preparation Example 1 were measured comparatively with those of tocopherol and EGCG. Tocopherol and EGCG are antioxidant substances known to function to regenerate the epidermal cells of the skin to prevent the aging of the skin.
In the test, human fibroblasts were added to a 96-well microtiter plate containing 2.5% FBS-containing DMEM (Dulbecco's Modified Eagle's Media) medium at a density of 5,000 cells/well and were cultured to a confluence of about 90%. […]
The production of collagenase in the harvested cell cultures was measured using a commercially available collagenase measuring device (Amersham Pharmacia, USA). […]
The absorbance of the 96-well plate having a yellow color was measured at 405 nm using a spectrophotometer, and the degree of synthesis of collagenase was calculated using the following Equation 1. Herein, the absorbance of the cell culture broth harvested from the group not treated with the test material was used as a control. That is, the expression level of collagenase in the untreated group was set as 100, and the expression level of collagenase in the group treated with the test material was calculated relative to the untreated group. […]

[1] = tested on: skin of panels sensitive to irritation; test: Irritation test (stinging, burning) in panels sensitive to irritation; assay type: in vivo; conditions: 0.5 mL applied to skin, 15 panels
Experimental: In order to compare the sensory feeling of the Chrysanthemum indicum var. albescens extract of the present invention with that of the known whitening substance kojic acid, 15 panels sensitive to irritation, such as stinging, burning, etc., were subjected to a test for determining irritation, such as stinging, burning, etc.
Each test panel was allowed to apply 0.5 mL of each of kojic acid (available from YM Chemical Co.) and the Chrysanthemum indicum var. albescens extract to his/her skin randomly at the left side or right side, and then evaluate the test sample by grading from 0 to 3.0 at an interval of 0.1.
0.5-1.0: slight irritation;
1.1-2.0: mild irritation;
2.1-3.0: severe irritation.

[2] = tested on: C57BL/6 mouse melanocytes (Mel-Ab cells); test: Melanin production inhibitory effect using mouse melanocytes; assay type: cell-based; conditions: 25 ppm test material, three consecutive days, absorbance at 400 nm
Experimental: The melanin production inhibitory activities of the Chrysanthemum indicum var. albescens extract prepared in Preparation Example 1 and the Chrysanthemum indicum extract prepared in Comparative Preparation Example 1 were measured comparatively with those of the known whitening substance hydroquinone.
C57BL/6 mouse melanocytes (Mel-Ab cells) (Dooley, T. P. et al, Skin pharmacol, 7, pp 188-200) were cultured in DMEM, containing 10% fetal bovine serum, 100 nM 12-O-tetradecanoylphorbol-13-acetate and 1 nM cholera toxin, under the conditions of 37° C. and 5% CO2. The cultured Mel-Ab cells were detached with 0.25% trypsin-EDTA and cultured in a 24-well plate at a concentration of […]. Then, during three consecutive days from 2 days of culture, each of the test materials was added thereto and cultured. As the test materials, 25 ppm of each of the Chrysanthemum indicum var. albescens extract of Preparation Example 1, the Chrysanthemum indicum extract of Comparative Preparation Example 1, and hydroquinone were used. Herein, the hydroquinone was used as a positive control. […] The lysed cells were measured for absorbance at 400 nm, and based on the measured absorbance, the percent inhibition of melanin production was calculated according to the following equation 2. Percent inhibition of melanin production=100−(absorbance of test material/absorbance of control×100) Equation 2

[3] = grade 0 to 3.0 at interval of 0.1

## O=C(O[C@@H]1Cc2c(O)cc(O)cc2O[C@@H]1c1cc(O)c(O)c(O)c1)c1cc(O)c(O)c(O)c1 [EGCG]
collagenase
  Collagenase expression level (%): 69%

## O=c1cc(CO)occ1O [Kojic acid, kojic acid]
[1]
  Irritation with respect to stinging and burning (in words): slight stinging and burning
[1]; grade 0 to 3.0
  Average (irritation grade of stinging and burning): 0.67
[1]; [3]
  Burning (irritation grade 0 to 3.0): 0.43
  Stinging (irritation grade 0 to 3.0): 0.91

## tocopherol
collagenase
  Collagenase expression level (%): 76%

## Oc1ccc(O)cc1 [Hydroquinone, hydroquinone]
[2]
  inhibition at 25 ppm: 48.2%
